Measured values published in the supplement of paper PMC10331698.
± gives the standard deviation of the averaged measurements.

Legend:
Experiment in all cases: level (log10 ratio to DMSO vehicle control); higher = higher biomarker level / cell amount than vehicle control
[1] = compound: CCOC(=O)CC(=O)C(F)(F)C(F)(F)F [Ethyl pentafluoropropionyl acetate] (in DMSO)
Procedure: (§1)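 BioMAP Diversity Plus panel of 12 human primary cell co-culture systems (3C, 4H, LPS, SAg, BT, BF4T, BE3C, CASM3C, HDF3CGF, KF3CT, MyoF, Mphg). Compounds were added 1 h before stimulation and left for 24 h (MyoF 48 h; BT 72 h for soluble read-outs or 6 d for IgG). Biomarkers were read by ELISA, cytotoxicity by SRB, PBMC viability and proliferation by Alamar Blue. Each well value was divided by the mean of 8 DMSO control wells on the same plate and log10 transformed; duplicate blinded samples were tested at 4 concentrations.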

[2] = compound: OCC(F)(F)C(F)(F)C(F)(F)C(F)F [1H,1H,5H-Perfluoropentanol] (in DMSO)
Procedure: as §1

[3] = compound: O=S(=O)(O)C(F)(F)C(F)(F)OC(F)(F)C(F)(F)F [Perfluoro(2-ethoxyethane)sulfonic acid] (in DMSO)
Procedure: as §1

[4] = compound: OCC(F)(F)OC(F)(F)C(F)(F)OC(F)(F)C(F)(F)OC(F)(F)CO [1H,1H,11H,11H-Perfluorotetraethylene glycol] (in DMSO)
Procedure: as §1

Octafluoroadipic acid = compound: O=C(O)C(F)(F)C(F)(F)C(F)(F)C(F)(F)C(=O)O [Octafluoroadipic acid] (in DMSO)
Procedure: as §1

[5] = compound: O=C(O)C(F)(OC(F)(F)C(F)(F)C(F)(F)F)C(F)(F)F [Ammonium perfluoro-2-methyl-3-oxahexanoate] (in Water)
Procedure: as §1

Perfluorononanoic acid = compound: O=C(O)C(F)(F)C(F)(F)C(F)(F)C(F)(F)C(F)(F)C(F)(F)C(F)(F)C(F)(F)F [Perfluorononanoic acid] (in DMSO)
Procedure: as §1

Test System	level (log10) ([1]; 6700 nM)	level (log10) ([1]; 20000 nM)	level (log10) ([1]; 60000 nM)	level (log10) ([2]; 6700 nM)	level (log10) ([2]; 20000 nM)	level (log10) ([2]; 60000 nM)	level (log10) ([3]; 6700 nM)	level (log10) ([3]; 20000 nM)	level (log10) ([3]; 60000 nM)	level (log10) ([4]; 6700 nM)	level (log10) ([4]; 20000 nM)	level (log10) ([4]; 60000 nM)	level (log10) (Octafluoroadipic acid; 6700 nM)	level (log10) (Octafluoroadipic acid; 20000 nM)	level (log10) (Octafluoroadipic acid; 60000 nM)	level (log10) ([5]; 6700 nM)	level (log10) ([5]; 20000 nM)	level (log10) ([5]; 60000 nM)	level (log10) (Perfluorononanoic acid; 6700 nM)	level (log10) (Perfluorononanoic acid; 20000 nM)
lMphg:CD62E/E-Selectin	-0.036 ± 0.02	-0.0245 ± 0.012	0.0115 ± 0.025	-0.006 ± 0.017	0.002 ± 0.014	0.02 ± 0.016	0.0175 ± 0.0092	0.0275 ± 0.0092	0.0425 ± 0.0092	-0.056 ± 0.037	-0.0635 ± 0.081	-0.072 ± 0.086	-0.0025 ± 0.036	-0.0275 ± 0.057	-0.028 ± 0.064	0.013 ± 0.0071	0.002 ± 0.0071	0.0245 ± 0.013	0.0125 ± 0.035	0.0365 ± 0.00071
lMphg:SRB	0.005 ± 0.0071	-0.0005 ± 0.0078	0.0055 ± 0.0035	-0.0065 ± 0.005	-0.0045 ± 0.0064	0.006 ± 0.0014	-0.001 ± 0.0014	0 ± 0.013	-0.021 ± 0.0071	-0.009 ± 0.011	-0.024 ± 0.0042	-0.047 ± 0.0099	-0.023 ± 0.017	-0.0045 ± 0.00071	0.001 ± 0.023	-0.043 ± 0.0014	-0.0435 ± 0.00071	-0.0395 ± 0.0035	0.008 ± 0.0042	0.0105 ± 0.021
CASM3C:Proliferation	-0.049 ± 0.04	-0.014 ± 0.0085	-0.0155 ± 0.00071	-0.018 ± 0.055	0.0175 ± 0.07	-0.0245 ± 0.03	-0.0405 ± 0.052	-0.0015 ± 0.018	0.048 ± 0.03	-0.039 ± 0.079	-0.039 ± 0.062	-0.12 ± 0.03	-0.066 ± 0.0071	-0.004 ± 0.073	0.014 ± 0.051	-0.07 ± 0.085	-0.095 ± 0.02	-0.104 ± 0.065	0.0505 ± 0.059	0.021 ± 0.052
BE3C:SRB	-0.002 ± 0.0042	-0.0015 ± 0.0035	0.002 ± 0.0071	0 ± 0.0014	0.0025 ± 0.0092	0.007 ± 0.011	-0.001 ± 0.0042	0 ± 0.0014	0.0055 ± 0.018	-0.004 ± 0.0057	-0.0055 ± 0.00071	-0.0115 ± 0.00071	0.0035 ± 0.005	0.0005 ± 0.0035	-0.0035 ± 0.0092	-0.003 ± 0.0042	0 ± 0.0014	0.003 ± 0.0099	-0.0015 ± 0.005	-0.04 ± 0.0028
